Read-outs that look alike come from different tables or passages of the source.
Key:
[1] = tested on: 3T3/neu; test: Cell proliferation assay (SRB), 3T3/neu; type: cell-based, mouse; conditions: for IC50: Mus musculus, 48 h, read-out: IC50 cell proliferation 3T3/neu
[2] = tested on: 3T3/neu xenografts; test: Effect on tumor xenografts, 3T3/neu; type: in vivo, Mice
[3] = tested on: BT474; test: Cell proliferation assay (SRB), BT474; type: cell-based; conditions: Homo sapiens, BT-474, 144 h, read-out: IC50 cell proliferation BT474
[4] = tested on: SW620 colon carcinoma cells; test: Cell proliferation assay (SRB), SW620; type: cell-based; conditions: Homo sapiens, SW-620, 48 h, read-out: IC50 cell proliferation SW620
[5] = tested on: BT474 xenografts; test: Effect on tumor xenografts, BT474; type: in vivo, Mice; conditions: for maximum tumor inhibition: day 21; for effect on BT474 xenografts: 10-40 mg/kg/day
Protocol: In animals bearing BT474 xenografts, treatment of animals with (E)N-{4-[3-chloro-4-(2-pyridinylmethoxy)anilino]-3-cyano-7-ethoxy-6-quinolinyl}-4-(methylamino)-2-butenamide had no effect at 10-40 mg/kg/day, as shown in Table 4.

[6] = tested on: SK-Br-3; test: Cell proliferation assay (SRB), SK-Br-3; type: cell-based; conditions: Homo sapiens, read-out: IC50 cell proliferation SK-Br-3
[7] = tested on: 3T3; test: Cell proliferation assay (SRB), 3T3; type: cell-based; conditions: Mus musculus, NIH3T3, 48 h, read-out: IC50 cell proliferation 3T3
[8] = biological target: T1, EGFR (Homo sapiens, UniProt P00533); test: ErbB substrate phosphorylation assay (33PanQinase assay), EGFR; type: biochemical; conditions: peptide substrate phosphorylation, [γ33P]-ATP
T1 construct: purchased ProQinase, Freiburg, Germany
Protocol: (§1) Here, the ability of the compound to inhibit phosphorylation of a substrate peptide [poly(Glu-Tyr) or poly(Ala-Glu-Lys-Tyr)] was determined.

[9] = tested on: A431; test: Cell proliferation assay (SRB), A431; type: cell-based; conditions: Homo sapiens, A-431, 48 h, A431, 2 days, mean and SE (n)
[10] = biological target: T2, HER-4 (Homo sapiens, UniProt Q15303); test: ErbB substrate phosphorylation assay (33PanQinase assay), HER-4; type: biochemical; conditions: peptide substrate phosphorylation, [γ33P]-ATP
T2 construct: purchased ProQinase, Freiburg, Germany
Protocol: as §1

[11] = biological target: T3, cytoplasmic kinase domain of HER-2 (Homo sapiens, UniProt P04626); test: HER-2 autophosphorylation assay; type: biochemical; conditions: purified recombinant C-terminal fragment of HER-2 with ATP; phosphotyrosine antibodies; mean and SE (n)
T3 construct: Purified recombinant C-terminal fragment of HER-2 was incubated with ATP

[12] = biological target: T4, HER-2 (Homo sapiens, UniProt P04626); test: ErbB substrate phosphorylation assay (33PanQinase assay), HER-2; type: biochemical; conditions: peptide substrate phosphorylation, [γ33P]-ATP
T4 construct: purchased ProQinase, Freiburg, Germany
Protocol: as §1

T4 sequence (P04626 23-1255): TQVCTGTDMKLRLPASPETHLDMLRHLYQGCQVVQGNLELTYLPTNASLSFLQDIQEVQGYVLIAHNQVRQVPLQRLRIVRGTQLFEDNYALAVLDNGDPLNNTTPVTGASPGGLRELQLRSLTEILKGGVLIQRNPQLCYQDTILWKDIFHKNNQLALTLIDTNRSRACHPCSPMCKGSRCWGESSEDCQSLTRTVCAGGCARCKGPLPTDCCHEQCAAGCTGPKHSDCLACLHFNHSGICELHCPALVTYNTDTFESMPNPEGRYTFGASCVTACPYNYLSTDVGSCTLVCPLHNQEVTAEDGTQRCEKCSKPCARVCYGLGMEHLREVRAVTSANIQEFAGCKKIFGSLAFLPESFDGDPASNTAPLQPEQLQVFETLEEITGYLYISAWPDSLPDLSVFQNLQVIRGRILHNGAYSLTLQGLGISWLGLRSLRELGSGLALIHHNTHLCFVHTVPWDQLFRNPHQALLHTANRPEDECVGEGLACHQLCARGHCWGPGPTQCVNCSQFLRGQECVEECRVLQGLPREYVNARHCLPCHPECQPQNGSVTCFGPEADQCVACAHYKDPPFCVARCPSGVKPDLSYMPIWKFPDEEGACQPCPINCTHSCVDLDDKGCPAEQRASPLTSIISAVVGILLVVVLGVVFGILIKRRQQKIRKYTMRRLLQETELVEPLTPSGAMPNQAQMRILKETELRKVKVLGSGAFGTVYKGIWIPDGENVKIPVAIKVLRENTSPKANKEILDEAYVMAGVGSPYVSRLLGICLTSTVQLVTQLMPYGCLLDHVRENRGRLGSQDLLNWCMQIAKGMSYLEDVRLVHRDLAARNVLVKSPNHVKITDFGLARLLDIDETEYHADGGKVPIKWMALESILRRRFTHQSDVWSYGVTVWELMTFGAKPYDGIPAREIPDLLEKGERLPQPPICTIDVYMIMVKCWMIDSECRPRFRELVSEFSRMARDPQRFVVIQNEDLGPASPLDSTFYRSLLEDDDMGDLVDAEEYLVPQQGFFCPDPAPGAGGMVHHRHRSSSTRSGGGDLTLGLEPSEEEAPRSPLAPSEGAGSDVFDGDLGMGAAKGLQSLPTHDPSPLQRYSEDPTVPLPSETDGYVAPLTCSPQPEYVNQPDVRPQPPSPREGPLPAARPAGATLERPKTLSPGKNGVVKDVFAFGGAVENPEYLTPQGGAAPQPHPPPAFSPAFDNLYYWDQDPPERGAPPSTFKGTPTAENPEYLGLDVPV
T2 sequence (Q15303 26-1308): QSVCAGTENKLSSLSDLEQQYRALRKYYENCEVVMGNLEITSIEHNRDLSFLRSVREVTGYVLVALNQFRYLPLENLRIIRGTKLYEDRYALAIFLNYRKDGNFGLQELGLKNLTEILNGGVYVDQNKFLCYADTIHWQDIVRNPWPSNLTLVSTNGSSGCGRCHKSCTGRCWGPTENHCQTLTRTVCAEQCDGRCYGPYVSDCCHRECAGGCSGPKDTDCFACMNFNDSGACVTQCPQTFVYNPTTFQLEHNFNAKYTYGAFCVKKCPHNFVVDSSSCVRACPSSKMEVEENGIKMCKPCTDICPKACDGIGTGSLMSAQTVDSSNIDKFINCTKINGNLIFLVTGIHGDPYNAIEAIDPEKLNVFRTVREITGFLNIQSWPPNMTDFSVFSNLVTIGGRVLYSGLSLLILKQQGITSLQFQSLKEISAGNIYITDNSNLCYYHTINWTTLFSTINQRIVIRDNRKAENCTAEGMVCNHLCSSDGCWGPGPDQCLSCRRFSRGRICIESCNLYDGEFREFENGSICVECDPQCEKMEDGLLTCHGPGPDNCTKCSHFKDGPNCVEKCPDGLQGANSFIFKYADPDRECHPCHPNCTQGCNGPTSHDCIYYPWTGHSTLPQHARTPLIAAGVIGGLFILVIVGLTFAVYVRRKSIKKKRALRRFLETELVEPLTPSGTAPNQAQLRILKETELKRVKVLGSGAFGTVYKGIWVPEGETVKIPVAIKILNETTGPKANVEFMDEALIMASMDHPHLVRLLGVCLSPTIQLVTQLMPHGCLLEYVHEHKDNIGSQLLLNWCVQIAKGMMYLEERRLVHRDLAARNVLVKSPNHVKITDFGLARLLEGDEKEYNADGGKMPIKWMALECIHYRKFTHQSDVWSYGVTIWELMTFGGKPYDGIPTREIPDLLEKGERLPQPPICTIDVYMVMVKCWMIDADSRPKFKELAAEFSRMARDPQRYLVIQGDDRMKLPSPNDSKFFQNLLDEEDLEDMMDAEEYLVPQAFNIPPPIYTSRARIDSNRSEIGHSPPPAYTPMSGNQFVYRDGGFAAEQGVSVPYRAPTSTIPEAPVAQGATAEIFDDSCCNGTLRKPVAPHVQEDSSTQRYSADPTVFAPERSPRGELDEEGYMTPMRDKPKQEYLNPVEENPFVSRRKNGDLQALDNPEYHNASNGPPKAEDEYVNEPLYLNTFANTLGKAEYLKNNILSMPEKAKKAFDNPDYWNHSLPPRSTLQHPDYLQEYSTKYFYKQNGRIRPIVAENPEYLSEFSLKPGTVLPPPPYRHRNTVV
T1 sequence (P00533 25-1210): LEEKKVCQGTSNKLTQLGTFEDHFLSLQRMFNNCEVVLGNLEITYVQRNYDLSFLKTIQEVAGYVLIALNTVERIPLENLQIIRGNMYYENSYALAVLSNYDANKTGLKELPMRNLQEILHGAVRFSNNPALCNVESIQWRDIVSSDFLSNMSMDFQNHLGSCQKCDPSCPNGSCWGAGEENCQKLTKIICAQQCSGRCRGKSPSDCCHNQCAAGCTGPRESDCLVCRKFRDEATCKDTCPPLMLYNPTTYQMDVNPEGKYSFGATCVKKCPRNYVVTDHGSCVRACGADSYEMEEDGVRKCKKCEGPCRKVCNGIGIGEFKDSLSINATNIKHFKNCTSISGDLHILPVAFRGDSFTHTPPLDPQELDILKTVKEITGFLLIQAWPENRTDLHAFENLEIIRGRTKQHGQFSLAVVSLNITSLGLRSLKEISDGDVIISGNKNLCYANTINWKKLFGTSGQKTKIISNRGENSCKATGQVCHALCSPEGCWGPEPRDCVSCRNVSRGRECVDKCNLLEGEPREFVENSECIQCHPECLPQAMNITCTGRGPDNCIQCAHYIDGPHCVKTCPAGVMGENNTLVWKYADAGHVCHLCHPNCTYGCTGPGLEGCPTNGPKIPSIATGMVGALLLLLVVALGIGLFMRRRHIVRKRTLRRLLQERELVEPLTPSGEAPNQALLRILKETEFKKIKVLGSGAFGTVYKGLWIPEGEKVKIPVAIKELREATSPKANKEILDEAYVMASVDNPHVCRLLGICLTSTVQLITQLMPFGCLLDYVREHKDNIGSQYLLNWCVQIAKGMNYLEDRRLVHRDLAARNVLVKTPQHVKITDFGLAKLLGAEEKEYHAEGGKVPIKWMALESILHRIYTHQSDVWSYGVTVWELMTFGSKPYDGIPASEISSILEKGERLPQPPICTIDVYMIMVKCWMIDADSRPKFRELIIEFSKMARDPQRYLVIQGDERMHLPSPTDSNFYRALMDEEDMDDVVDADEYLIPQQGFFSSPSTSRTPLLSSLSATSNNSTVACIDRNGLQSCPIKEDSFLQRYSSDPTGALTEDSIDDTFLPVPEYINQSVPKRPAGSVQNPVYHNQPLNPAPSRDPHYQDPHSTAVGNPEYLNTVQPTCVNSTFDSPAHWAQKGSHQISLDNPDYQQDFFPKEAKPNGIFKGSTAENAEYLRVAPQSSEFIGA
T3 sequence (P04626 676-1255 limits assumed): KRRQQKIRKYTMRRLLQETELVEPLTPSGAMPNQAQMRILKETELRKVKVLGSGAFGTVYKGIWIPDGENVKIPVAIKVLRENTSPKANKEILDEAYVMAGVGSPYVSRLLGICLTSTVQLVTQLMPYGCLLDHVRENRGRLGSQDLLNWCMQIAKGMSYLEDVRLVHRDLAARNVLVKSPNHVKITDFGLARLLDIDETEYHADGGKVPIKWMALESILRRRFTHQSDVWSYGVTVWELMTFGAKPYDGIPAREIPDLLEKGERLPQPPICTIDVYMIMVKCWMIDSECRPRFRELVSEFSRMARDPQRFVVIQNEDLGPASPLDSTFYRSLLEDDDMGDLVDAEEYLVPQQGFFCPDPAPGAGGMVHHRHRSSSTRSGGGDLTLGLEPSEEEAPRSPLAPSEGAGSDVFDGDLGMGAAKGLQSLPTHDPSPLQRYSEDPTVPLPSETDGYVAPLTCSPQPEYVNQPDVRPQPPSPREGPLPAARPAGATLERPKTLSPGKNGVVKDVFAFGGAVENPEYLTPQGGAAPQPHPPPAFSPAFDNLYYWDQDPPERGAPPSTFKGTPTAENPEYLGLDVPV

CCOc1cc2ncc(C#N)c(Nc3ccc(OCc4ccccn4)c(Cl)c3)c2cc1NC(=O)/C=C/CN(C)C [Dimethylamino, (E)N-{4-[3-Chloro-4-(2-pyridinylmethoxy)anilino]-3-cyano-7-ethoxy-6-quinolinyl}-4-(dimethylamino)-2-butenamide, reference compound]
IC50 [1]: 5 ± 0.2 nM | tumor growth inhibition ([2]; first test, 40 mg/kg/day, day 18 (data not shown)): 74% | tumor growth inhibition ([2]; second independent test, between 40 and 80 mg/kg/day, day 14): 93-100% | IC50 [3]: 2 ± 0.2 nM | IC50 [4]: 1220 ± 246 nM | maximum tumor inhibition ([5]; 10 mg/kg/day): 64% | maximum tumor inhibition ([5]; 40 mg/kg/day): 97% | effect on BT474 xenografts [5]: good antitumor activity | IC50 ([6]; SK-BR-3, 48 h): 36 ± 20 nM | IC50 [7]: 2190 ± 700 nM

CCOc1cc2ncc(C#N)c(Nc3ccc(F)c(Cl)c3)c2cc1NC(=O)/C=C/CNCC(=O)OC(C)(C)C [Example 2, (E)N-{4-[3-chloro-4-fluoroanilino]-3-cyano-7-ethoxy-6-quinolinyl}-4-[N-(t-butyloxycarbonyl)methylamino]-2-butenamide]
melting point: 106.5 to 108 °C

CCOc1cc2ncc(C#N)c(Nc3ccc(OCc4ccccn4)c(Cl)c3)c2cc1NC(=O)/C=C/CNC [Example 6, (E)N-{4-[3-Chloro-4-(2-pyridinylmethoxy)anilino]-3-cyano-7-ethoxy-6-quinolinyl}-4-(methylamino)-2-butenamide]
IC50 [8]: 7 nM | fold less potent than the dimethylamino compound ([1]; 3T3/neu cells): 8 fold | IC50 ([1]; 3T3/neu, 2 days, SRB, mean and SE (n)): 40 nM | effect on tumor growth ([2]; first test, daily oral, between 5 and 40 mg/kg/day): no effect on tumor growth | effect on tumor growth ([2]; second independent test, 100 mg/kg/day): no effect on tumor growth | IC50 ([3]; BT474, 6 days, SRB, mean and SE (n)): 3 nM | IC50 [9]: 67 nM | IC50 [10]: 13 nM | IC50 ([4]; SW620, 2 days, SRB, mean and SE (n)): 1600 nM | effect on BT474 xenografts [5]: no effect | IC50 [11]: 3.4 nM | IC50 ([6]; 48 h, SK-Br-3, 2 days, SRB, mean and SE (n)): 34 nM | IC50 ([7]; 3T3 untransfected cells, 2 days, SRB, mean and SE (n)): 5460 nM | IC50 [12]: 21 nM

— patent US20060270670A1, “Methods of synthesizing 6-alkylaminoquinoline derivatives” (priority 2005, published 2006)
